In ChEMBL document CHEMBL1201862, “PubChem BioAssay data set” (2004):
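A five-concentration, 48-hour dose response in 96-well plates underlies each endpoint, interpolated linearly between surrounding concentrations. Abbreviation: GI50, concentration required for 50% inhibition of growth.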 Active and inactive are the calls of the source. Cut-off read from the data, not from the text of the source: active = GI50 up to about 1.1 µM and inactive = higher.

Experiments:
Assay in all cases: inhibition of tumour cell growth, NCI panel, 48 h
A498 = test system: A498
CCRF-CEM = test system: CCRF-CEM
HOP-62 = test system: HOP-62
HT-29 = test system: HT-29
IGROV-1 = test system: IGROV-1
M14 = test system: M14
MOLT-4 = test system: MOLT-4
NCI-H226 = test system: NCI-H226
NCI-H460 = test system: NCI-H460
OVCAR-3 = test system: OVCAR-3
PC-3 = test system: PC-3
SF-268 = test system: SF-268
SF-539 = test system: SF-539
SK-MEL-5 = test system: SK-MEL-5
SW-620 = test system: SW-620
TK-10 = test system: TK-10
A549 = test system: A549
COLO 205 = test system: COLO 205
SN12C = test system: SN12C

Measured: GI50

O=C1c2ccccc2C(=O)C2NC(CCCCCSSCCCCCC3=NC4C(=O)c5ccccc5C(=O)C4N3)=NC12 (centres undefined)
inactive: A498 23.7 µM | CCRF-CEM > 100 µM | HOP-62 > 100 µM | HT-29 > 100 µM | IGROV-1 12.9 µM | M14 4.57 µM | MOLT-4 3.8 µM | NCI-H226 > 100 µM | NCI-H460 > 100 µM | OVCAR-3 > 100 µM | PC-3 > 100 µM | SF-268 27.3 µM | SF-539 24.3 µM | SK-MEL-5 19.9 µM | SW-620 90.8 µM | TK-10 68.2 µM

Cn1cc(S(=O)(=O)NC(=O)Nc2ccc(Cl)cc2)c(=O)c2ccc(F)cc21
inactive: A498 > 100 µM | A549 > 100 µM | CCRF-CEM > 100 µM | COLO 205 > 100 µM | HOP-62 > 100 µM | HT-29 > 100 µM | IGROV-1 > 100 µM | MOLT-4 > 100 µM | NCI-H226 > 100 µM | NCI-H460 > 100 µM | PC-3 > 100 µM | SF-268 > 100 µM | SF-539 > 100 µM | SK-MEL-5 > 100 µM | SN12C > 100 µM | SW-620 > 100 µM | TK-10 > 100 µM

c1coc(-c2nccc3c2[nH]c2ccccc23)c1
inactive: A498 > 100 µM | A549 > 100 µM | CCRF-CEM > 100 µM | COLO 205 17.5 µM | HOP-62 > 100 µM | HT-29 > 100 µM | IGROV-1 > 100 µM | M14 > 100 µM | MOLT-4 > 100 µM | NCI-H226 29.1 µM | NCI-H460 > 100 µM | OVCAR-3 > 100 µM | PC-3 > 100 µM | SF-268 > 100 µM | SF-539 > 100 µM | SK-MEL-5 > 100 µM | SN12C > 100 µM | SW-620 > 100 µM | TK-10 > 100 µM

COc1ccc(C(=O)/C=C/c2ccc(OCCCOc3ccc(/C=C/C(=O)c4ccc(OC)cc4)cc3)cc2)cc1
inactive: A549 > 100 µM | CCRF-CEM > 100 µM | COLO 205 > 100 µM | HOP-62 > 100 µM | HT-29 56.1 µM | IGROV-1 > 100 µM | M14 > 100 µM | MOLT-4 > 100 µM | NCI-H226 > 100 µM | NCI-H460 > 100 µM | PC-3 > 100 µM | SF-268 52.2 µM | SF-539 28.8 µM | SK-MEL-5 > 100 µM | SN12C > 100 µM | SW-620 > 100 µM | TK-10 > 100 µM

COP(=O)(OC)C(O)/C=C(\Cl)c1ccc(Cl)cc1 (centres undefined)
inactive: A549 > 100 µM | CCRF-CEM 21.1 µM | COLO 205 > 100 µM | HOP-62 28.4 µM | HT-29 > 100 µM | IGROV-1 > 100 µM | M14 62.1 µM | MOLT-4 28.1 µM | NCI-H226 > 100 µM | NCI-H460 > 100 µM | OVCAR-3 19.1 µM | PC-3 31.6 µM | SF-268 65.2 µM | SF-539 > 100 µM | SK-MEL-5 23.7 µM | SN12C 40.7 µM | SW-620 38.8 µM | TK-10 > 100 µM

O=C1/C(=C/c2cccs2)NC(=S)N1CN1CCOCC1
inactive: A498 42.9 µM | A549 > 100 µM | CCRF-CEM > 100 µM | COLO 205 > 100 µM | HOP-62 > 100 µM | HT-29 > 100 µM | IGROV-1 > 100 µM | M14 > 100 µM | MOLT-4 > 100 µM | NCI-H226 > 100 µM | OVCAR-3 > 100 µM | PC-3 > 100 µM | SF-268 > 100 µM | SK-MEL-5 > 100 µM | SN12C > 100 µM | SW-620 > 100 µM | TK-10 34.1 µM
